How the values were obtained:
Format in all cases: cell-based
[1] = test system: rapamycin-resistant A498 cell line; experiment: Cell viability, rapamycin-resistant A498; settings: for IC50: Homo sapiens, A498
Protocol: In an embodiment, the antiproliferative activity of compounds MC421, MC409, MC408, MC350, MC416, MC410, MC411, MC415 and MC413 was further determined against drug-resistant renal carcinoma cell lines.
In an embodiment, cell viability assays were performed. MCF-7, Hs578T and MCF-10A cells were plated in triplicate in 96-multiwell culture plates, at 3000 cells per mL, or 5000 cells per mL for MDA-MB-468 (100 μL/well). The cells were then allowed to adhere in complete medium, over a period of 18-20 hours. Cells were subsequently treated with 7 different concentrations (from 0.1 to 40 μM or 5 to 60 μM) of compounds or control in fresh medium. HL-60, KG-1 and Jurkat cell lines were plated in 96-multiwell culture plates at 50.000 cells/100 μL per well and treated with different concentrations (from 0.001 to 2 μM) of the compounds described (or control). Cells were plated, in triplicate, at an initial density of 2000 cells/well for GAMG, 4000 cells/well for GL18 and 6000 cells/well for U87MG, in 96-well plates, and allowed to adhere for 18-20 hours. Cells were then treated with different concentrations of the compounds (0.005 to 100 μM) or with control. A498 and 786-O cells were plated at 2000 cells per mL, Caki-2 cells were plated at 3000 cells per mL and HK2 cells were plated at 2000 cells per mL in triplicate, in 96-multiwell culture plates (100 μL/well), and allowed to adhere over a period of 18-20 hours in complete medium. The cells were then treated with 7 different concentrations (from 0.1 to 40 μM or 5 to 60 μM) of compounds or control in fresh medium. After 72 h of incubation, the MTS (Promega) reduction assay was performed according to manufacturer's instructions to indirectly assess the percentage of viable cells through metabolic cell viability. After 1-2 hours of incubation with MTS in a humidified atmosphere at 37° C. and 5% CO2, absorbance was measured at 490 nm. For RCC cell lines, sulforhodamine B assay was used according to manufacturer's instructions. The data was log-transformed and the concentration of each compound that decreased the number of viable cells to 50% (IC50) relative to control was calculated using the GraphPad Prism 6 software.

[2] = test system: TNBC cell line MDA-MB-231; experiment: Cell viability assay, MDA-MB-231; settings: Homo sapiens
TNBC cell line Hs578t = experiment: Cell viability assay (MTS), Hs578t; settings: Homo sapiens, Hs-578T; 72 h incubation
Description: In an embodiment, for a comparison study, monomers and respective dimers were selected and further evaluated in Hs578t and MDA-MB-468 breast cell lines. […] These cell lines correspond to the basal-like subtype of breast cancer, included in the known triple negative subtype, since they are negative for Estrogen receptor (ER), progesterone receptor (PR) and Human epidermal growth factor receptor 2 (HER2) molecular markers. The clinical behaviour of these breast cancer subtype is very aggressive and there is still no specific molecular therapy available.
In an embodiment, three human breast cancer cell lines Hs578T, MDA-MB-468 and MCF-7, and a normal breast cell line MCF-10A, were obtained from ATCC (American Type Culture Collection). The cancer cell lines were cultured in Dulbecco's modified Eagle medium, 4.5 g/l glucose (DMEM, Gibco) supplemented with 10% heating inactivated Fetal Bovine Serum (FBS, Gibco) and 1% antibiotic solution (Penicillin-Streptomycin, Gibco). The normal cell line was cultured in Dulbecco's Modified Eagle Medium: Nutrient Mixture F-12 (DMEM/F12, Gibco) supplemented with 5% heating inactivated FBS (Gibco), 1% antibiotic solution (Penicillin-Streptomycin, Gibco), 1% steroid hormone (Hydrocortisone, Sigma-Aldrich), 0.1% peptide hormone (Insulin, Sigma-Aldrich) and 0.01% protein complex (Cholera Toxin, Gibco). Two distinct human acute myeloid leukemia (AML) cell lines, HL-60 (FAB M2) and KG-1 (erythroleukemia-FAB M6), and one human lymphoblastic leukemia (ALL) cell line, Jurkat (T cell type), were also used. These three cell lines were obtained from German Collection of Microorganisms and Cell cultures (DMSZ®, Deutsche Sammlung von Mikroorganismen and Zellkulturen in German). Cells were cultured in RPMI 1640 medium (Biochrom®-Merck Millipore) supplemented with 10% heating inactivated FBS (Biochrom®-Merck Millipore) and 1% antibiotic/antimitotic mixture (Invitrogen®). Three human glioblastoma (GBM) cell line models, two established and commercially available cell lines (U87MG and GAMG, kind gift from Rui M. Reis) and one primary GBM culture (GLIB) were also used. GBM cells were cultures in DMEM (Biochrom-Merck Millipore), all supplemented with 10% FBS. The Renal cell carcinoma cell lines A498, 786-O, Caki-2 and HK2 were obtained from ATCC. The cancer cell line A498 was cultured in MEM medium (Biochrom®-Merck Millipore), 786-O was cultured in RPMI 1640 medium (Biochrom®-Merck Millipore), Caki-2 was cultured in Mc Coys medium (Biochrom®-Merck Millipore) and HK2 was cultured in RPMI 1640 medium (Biochrom®-Merck Millipore). All the media were supplemented with 10% heat inactivated FBS (Biochrom®-Merck Millipore) and 1% antibiotic/antimitotic mixture (Invitrogen®). All cells were grown in a humidified incubator at 37° C. and 5% CO2. For all assays, DMSO (Dimethyl Sulfoxide, Sigma-Aldrich) controls were used.
In an embodiment, cell viability assays were performed. MCF-7, Hs578T and MCF-10A cells were plated in triplicate in 96-multiwell culture plates, at 3000 cells […], or 5000 cells […] for MDA-MB-468 (100 μL/well). The cells were then allowed to adhere in complete medium, over a period of 18-20 hours. Cells were subsequently treated with 7 different concentrations (from 0.1 to 40 μM or 5 to 60 μM) of compounds or control in fresh medium. HL-60, KG-1 and Jurkat cell lines were plated in 96-multiwell culture plates at 50.000 cells/100 μL per well and treated with different concentrations (from 0.001 to 2 μM) of the compounds described (or control). Cells were plated, in triplicate, at an initial density of 2000 cells/well for GAMG, 4000 cells/well for GL18 and 6000 cells/well for U87MG, in 96-well plates, and allowed to adhere for 18-20 hours. Cells were then treated with different concentrations of the compounds (0.005 to 100 μM) or with control. […]

Structure (SMILES) | Selectivity Index (vs HK2) A498 Resistant [1] | IC50 [1] | IC50 [2] | IC50 (TNBC cell line Hs578t)
COc1cccc2c1Oc1nc(-c3ccccc3)[nH]c1C2 [MC350, 5-methoxy-2-phenyl-3,9-dihydrochromeno[2,3-d]imidazoles] | 12.27 | 1.62 µM | 2520 nM | 
COc1cccc2c1Oc1nc(-c3ccccc3F)[nH]c1C2C1c2cccc(OC)c2Oc2nc(-c3ccccc3F)[nH]c21 (centres unmarked) [MC369, 2,2′-bis(2-fluorophenyl)-5,5′-dimethoxy-1,1,9,9′-tetrahydro-9,9′-bichromeno[2,3-]imidazoles] |  |  | 2520 nM | 
COc1cccc2c1Oc1nc(-c3ccc(F)cc3)[nH]c1C2C1c2cccc(OC)c2Oc2nc(-c3ccc(F)cc3)[nH]c21 (centres unmarked) [MC406, 2,2′-bis(4-fluorophenyl)-5,5′-dimethoxy-1,1,9,9′-tetrahydro-9,9′-bichromeno[2,3-]imidazoles] |  |  | 1290 nM | 53 nM
COc1cccc2c1Oc1nc(-c3ccccc3F)[nH]c1C2 [MC407, 2-(2-fluorophenyl)-5-methoxy-3,9-dihydrochromeno[2,3-d]imidazoles] |  |  | 1650 nM | 
COc1cccc2c1Oc1nc(-c3ccc(Br)cc3)[nH]c1C2 [MC408, 2-(4-bromophenyl)-5-methoxy-3,9-dihydrochromeno[2,3-d]imidazoles] | 2.26 | 1.07 µM | 2560 nM | 47 nM
COc1cccc2c1Oc1nc(-c3ccc(F)cc3)[nH]c1C2 [MC409, 2-(4-fluorophenyl)-5-methoxy-3,9-dihydrochromeno[2,3-d]imidazoles] | 5.84 | 0.51 µM | 2700 nM | 270 nM
COc1cccc2c1Oc1nc(-c3cc(F)cc(F)c3O)[nH]c1C2 [MC410, 2,4-difluoro-6-(5-methoxy-3,9-dihydrochromeno[2,3-d]imidazol-2-yl)phenol] |  |  | > 30000 nM | > 20000 nM
COc1ccccc1-c1nc2c([nH]1)Cc1cccc(OC)c1O2 [MC411, 5-methoxy-2-(2-methoxyphenyl)-3,9-dihydrochromeno[2,3-]imidazoles] |  |  | 1780 nM | 8610 nM
COc1cccc2c1Oc1nc(-c3ccc(O)cc3)[nH]c1C2 [MC413, 4-(5-methoxy-3,9-dihydrochromeno[2,3-d]imidazol-2-yl)phenol] | 12.32 | 0.77 µM | 630 nM | 990 nM
CCOc1ccc(-c2nc3c([nH]2)Cc2cccc(OC)c2O3)cc1 [MC415, 2-(4-ethoxyphenyl)-5-methoxy-3,9-dihydrochromeno[2,3-d]imidazoles] | 8.03 | 0.58 µM | 1420 nM | 580 nM
COc1ccc(-c2nc3c([nH]2)Cc2cccc(OC)c2O3)c(Br)c1O [MC416, 2-bromo-6-methoxy-3-(5-methoxy-3,9-dihydrochromeno[2,3-]imidazol-2-yl)phenol] |  |  |  | 3160 nM
COc1cccc2c1Oc1nc(-c3ccc(Br)cc3)[nH]c1C2C1c2cccc(OC)c2Oc2nc(-c3ccc(Br)cc3)[nH]c21 (centres unmarked) [MC421, 2,2′-bis(4-bromophenyl)-5,5′-dimethoxy-1,1,9,9′-tetrahydro-9,9′-bichromeno[2,3-]imidazoles] | 14.56 | 0.16 µM | 2960 nM | 35 nM
